Series [1] is described as follows: Protonation constants by spectrophotometric titration (Psequad fitting). Type of series: physicochemical. The following applies: pH 7.4, CL = 1 × 10^−5 M. Here is the method:
To formulate the model for the metal chelation mechanism of compounds 4c and 5a, their protonation constants were first determined by spectrophotometric titrations in a 50% (w/w) DMSO/H2O medium by fitting the experimental data with the program Psequad. This working medium was adopted to perform all the equilibrium studies due to certain solubility problems of the compounds. Since the concentration of the compound used in cell studies is low (<7 μM), the final corresponding concentration of DMSO in culture media would be much lower (<1%) and also is not expected to induce modifications of biological tissues.
The two positional isomeric hybrids 4c and 5a were titrated, alone or in the presence of the metal ions, in a 50% w/w DMSO/H2O medium, at T = 25.0 ± 0.1 °C and ionic strength of (I) 0.1 M KCl, by using a 0.1 M KOH (50% w/w DMSO/H2O) titrant solution. The glass and Ag/AgCl reference electrodes were previously conditioned in different DMSO/H2O mixtures of increasing DMSO % compositions, and the response of the glass electrode was evaluated by strong acid–strong base (HCl/KOH) calibrations with the determination of the Nernst parameters by Gran’s method. […] Under these specified experimental conditions, the pKw value (14.95) was determined and subsequently used in the calculations. […]

Series [2] in a line: Cu(II) complexation by spectrophotometric titration. Format: physicochemical. The following applies: for logβCumHhLl, global formation constant, species (1–11): CuH−1L (1–11); for logβCumHhLl, global formation constant, species (1–11) / logβCumHhLl, global formation constant, species (102) / logβCumHhLl, global formation constant, species (101): T = 25.0 ± 0.1 °C, I = 0.1 M KCl, 50% w/w DMSO/water; for logβCumHhLl, global formation constant, species (102): CuL2 (102); for logβCumHhLl, global formation constant, species (101): CuL (101); for Kd: calculated at pH 7.4, read-out: conditional dissociation constant (K’d) for the copper complex; for pM (pCu): pM = −log[M] at pH 7.4, CL/CM = 10, CM = 10^−6 M. Here is the method:
(§1) The metal complexation studies were performed by spectrophotometric titration, in the same 50% w/w DMSO/water medium used for both ligands alone, with fitting analysis of the UV-Vis spectra by Psequad. The calculated metal-chelating equilibrium models, included in Table 1, show good chelating capacity towards Cu(II) (pCu~10.3–13.6) and Fe(III) (pFe~16.8–17.4), involving complex species with a 1:1 to 1:2 or 1:1 to 1:3 M/L ratio, respectively. Metal coordination is expected to occur primarily through the phenolic oxygen and the imidazole nitrogen N(3) of the BIM moiety.
(§2) The two positional isomeric hybrids 4c and 5a were titrated, alone or in the presence of the metal ions, in a 50% w/w DMSO/H2O medium, at T = 25.0 ± 0.1 °C and ionic strength of (I) 0.1 M KCl, by using a 0.1 M KOH (50% w/w DMSO/H2O) titrant solution. The glass and Ag/AgCl reference electrodes were previously conditioned in different DMSO/H2O mixtures of increasing DMSO % compositions, and the response of the glass electrode was evaluated by strong acid–strong base (HCl/KOH) calibrations with the determination of the Nernst parameters by Gran’s method. […] The spectrophotometric measurements were carried out in a 250–450 nm (L, Cu/L systems) or 250–650 nm (L, Fe/L systems) wavelength range at pH ca 2.5–8.0. Under these specified experimental conditions, the pKw value (14.95) was determined and subsequently used in the calculations. The stepwise protonation constants of the ligands, Ki = [HiL]/[Hi−1L][H], and the overall metal–complex stability constants, βMmHhLl = [MmHhLl]/[M]^m[H]^h[L]^l, were calculated by fitting the spectrophotometric data with the Psequad program. The metal hydrolysis model was determined under the established experimental conditions (I = 0.1 M KCl, 50% w/w DMSO/H2O, T = 25.0 ± 0.1 °C) and the following values of stability constants were included in the equilibrium models related to the Fe(III)/L and Cu(II)/L systems: log βFeH−1 = −4.07, log βFeH−3 = −11.42; log βCu2H−2 = −9.99. The species distribution curves were obtained with the Hyss program.

Series [3] in a line: Fe(III) complexation by spectrophotometric titration. Type of series: physicochemical. The following applies: for log βFemHhLl, global formation constant, species (102): FeL2 (102); for log βFemHhLl, global formation constant, species (102) / log βFemHhLl, global formation constant, species (103) / log βFemHhLl, global formation constant, species (101): T = 25.0 ± 0.1 °C, I = 0.1 M KCl, 50% w/w DMSO/water; for log βFemHhLl, global formation constant, species (103): FeL3 (103); for log βFemHhLl, global formation constant, species (101): FeL (101); for pM (pFe): pM = −log[M] at pH 7.4, CL/CM = 10, CM = 10^−6 M. As to the method: as §1, §2

Series [4] concerns the target T1, hMAO-A (Homo sapiens, UniProt P21397).
T1 construct: purchased Sigma-Aldrich Quimica S.A., Madrid, Spain; host or cells: insect cells (BTI-TN-5B1-4) infected with recombinant baculovirus
T1 sequence (P21397 1-527): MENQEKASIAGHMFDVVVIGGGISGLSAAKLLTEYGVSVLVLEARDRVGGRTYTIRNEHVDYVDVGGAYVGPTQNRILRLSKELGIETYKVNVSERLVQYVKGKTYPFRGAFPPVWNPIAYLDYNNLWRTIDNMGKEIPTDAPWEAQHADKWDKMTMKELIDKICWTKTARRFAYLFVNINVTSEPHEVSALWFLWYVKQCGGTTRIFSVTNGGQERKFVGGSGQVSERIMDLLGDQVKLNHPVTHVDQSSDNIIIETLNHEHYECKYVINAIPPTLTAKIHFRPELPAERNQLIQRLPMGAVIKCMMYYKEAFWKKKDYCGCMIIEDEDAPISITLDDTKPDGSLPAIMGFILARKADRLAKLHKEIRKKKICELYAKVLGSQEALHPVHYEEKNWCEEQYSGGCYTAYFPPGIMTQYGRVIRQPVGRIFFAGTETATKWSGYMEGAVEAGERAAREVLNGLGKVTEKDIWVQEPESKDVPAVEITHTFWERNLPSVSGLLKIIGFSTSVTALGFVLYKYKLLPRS
Briefly: hMAO-A inhibition (kynuramine to 4-hydroxyquinoline, microsomal recombinant enzyme). Type of series: biochemical. Particulars: read-out: % Inhibition (at 10 µM) hMAO-A. As to the method:
(§3) The inhibitory activity of the rivastigmine hybrids (RIV–BIM) on hMAO-A and hMAO-B was studied using an experimental protocol described elsewhere with some modifications. The outlined hMAO inhibition was assessed in microsomal MAO isoforms prepared from insect cells (BTI-TN-5B1-4) infected with recombinant baculovirus containing cDNA inserts for hMAO-A or hMAO-B (Sigma-Aldrich Quimica S.A., Madrid, Spain) and by measuring the enzymatic conversion rates of kynuramine into 4-hydroxyquinoline. […] All assays were performed under sodium phosphate-buffered conditions (50 mM, pH = 7.4). […] Then, the reaction was started with the addition of hMAO-A or hMAO-B. Initial velocities were determined spectrophotometrically in a microplate reader (Biotek Synergy HT, Winooski, VT, USA) at 37 °C by measuring the formation of 4-hydroxyquinoline at 316 nm, over a period of at least 30 min (interval of 1 min). Data were analyzed using GraphPad PRISM version 6 for Windows (GraphPad Software®, San Diego, CA, USA). The initial velocities, obtained from the linear phase of product formation, were normalized and plotted against the respective inhibitor concentration. IC50 values were obtained from dose–response curves and were expressed as the mean ± standard deviation. IC50 values were determined from at least three independent experiments, each performed in triplicate.

Series [5] deals with T2, hMAO-B (Homo sapiens, UniProt P27338).
T2 construct: purchased Sigma-Aldrich Quimica S.A., Madrid, Spain; host or cells: insect cells (BTI-TN-5B1-4) infected with recombinant baculovirus
T2 sequence (P27338 1-520): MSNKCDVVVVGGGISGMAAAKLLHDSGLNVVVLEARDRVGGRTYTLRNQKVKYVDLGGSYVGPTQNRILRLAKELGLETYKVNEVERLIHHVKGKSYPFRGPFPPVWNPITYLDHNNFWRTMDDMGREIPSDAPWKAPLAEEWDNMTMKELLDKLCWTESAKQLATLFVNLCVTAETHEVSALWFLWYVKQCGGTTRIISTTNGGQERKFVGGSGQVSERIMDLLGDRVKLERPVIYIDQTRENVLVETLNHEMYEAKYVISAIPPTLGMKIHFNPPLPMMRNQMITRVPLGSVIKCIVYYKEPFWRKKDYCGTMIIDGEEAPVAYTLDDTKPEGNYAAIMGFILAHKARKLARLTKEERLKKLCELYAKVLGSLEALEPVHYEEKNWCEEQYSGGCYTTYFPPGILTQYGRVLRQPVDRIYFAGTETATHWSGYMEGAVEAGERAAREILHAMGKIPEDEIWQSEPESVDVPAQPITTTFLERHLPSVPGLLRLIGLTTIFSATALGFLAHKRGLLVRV
Briefly: hMAO-B inhibition (kynuramine to 4-hydroxyquinoline, microsomal recombinant enzyme). Format: biochemical. Here is the method: as §3

Series [6] relates to Aβ42. The following applies: absence of copper, 20 µM inhibitor, thioflavin-T fluorescence; cited from earlier work.
For series [7], the system named is Aβ42. The following applies: presence of copper (40 µM), 20 µM inhibitor, thioflavin-T fluorescence; cited from earlier work.

For orientation: inhibition means the share of the control response that was lost under treatment.

The structures appear in SMILES notation.

For `CCN(C)C(=O)Oc1cccc(CCNC(=O)c2ccc3[nH]c(-c4ccccc4O)nc3c2)c1` [4c], the “predominant neutral species HL” value in series [1] is 97.4%. In series [2], the “logβCumHhLl, global formation constant, species (1–11)” value is recorded as 3.40(5); the “logβCumHhLl, global formation constant, species (102)” value is on record as 17.16(8); the “logβCumHhLl, global formation constant, species (101)” value is 9.09(5); the Kd is 32 nM. For the same compound, in series [2], the “pM (pCu)” value came out at 10.3. Besides, in series [3], the “log βFemHhLl, global formation constant, species (102)” value is 20.35(7); the “log βFemHhLl, global formation constant, species (103)” value is listed as 28.40(6); the “log βFemHhLl, global formation constant, species (101)” value is 11.57(6); the “pM (pFe)” value is on record as 16.8. Also, in series [4], the inhibition at 10 µM was determined as 30%. For the same compound, the inhibition at 10 µM in series [5] turned out to be 33%. Further, the “Aβ42 Self- Aggreg. Inhib.” value in series [6] is given as 21.2%. In addition, in series [7], the “Aβ42 Cu-ind. Aggreg. Inhib.” value was 22.0%.
Turning to `CCN(C)C(=O)Oc1cccc(NC(=O)c2cccc3[nH]c(-c4ccccc4O)nc23)c1` [5a], in series [1], the “predominant neutral species HL” value was 94.9%. For the same compound, in series [2], the “logβCumHhLl, global formation constant, species (1–11)” value is 3.82(8); the “logβCumHhLl, global formation constant, species (102)” value is listed as 20.43(5); the “logβCumHhLl, global formation constant, species (101)” value is 11.30(2); the Kd was 0.098 nM. For the same compound, the “pM (pCu)” value in series [2] stood at 13.6. Besides, in series [3], the “log βFemHhLl, global formation constant, species (102)” value is listed as 23.82(4); the “log βFemHhLl, global formation constant, species (103)” value is given as 30.20(8); the “log βFemHhLl, global formation constant, species (101)” value was 12.53(5); the “pM (pFe)” value is recorded as 17.4. Moreover, in series [4], the inhibition at 10 µM was determined as 33%. For the same compound, the inhibition at 10 µM in series [5] was 31%. In addition, the “Aβ42 Self- Aggreg. Inhib.” value in series [6] is 44.5%. In addition, the “Aβ42 Cu-ind. Aggreg. Inhib.” value in series [7] is recorded as 45.4%.
